The numbers were not newly measured in US20140053594A1, “THERMALLY ACTIVATED PRESSURE BOOSTER FOR HEAT PUMPING AND POWER GENERATION” (priority 2011, published 2014), which cites them from elsewhere.

The structures appear in SMILES notation.

The subject of data set [1] is rat. Conditions: intraperitoneal.
For data set [2], the system named is rat. Conditions: intravenous.
Another data set concerns RBT. Particulars: intraperitoneal, rabbit.
The subject of data set [3] is rat. Particulars: oral.
Data set [4] relates to rat.

For the compound `CN(C)C=O` [DMF, dimethylformamide], the “IPR-RAT LD50” value with rat [1] is 1400 mg/kg. Moreover, in the data set with rat [2], the “IVN-RAT LD50” value was 2000 mg/kg. Further, the “IPR-RBT LD50” value with RBT is on record as “LD50 1000 mg kg^−1”. Further, the “ORL-RAT LD50” value in the data set with rat [3] is on record as “ORL-RAT LD50 2800 mg kg^−1”.

As to `C[S+](C)[O-]` [DMSO, dimethyl sulfoxide], the “Acute oral toxicity (LD50)” value in the data set with Mouse was 7920 mg/kg [Mouse]. In addition, the “Acute dermal toxicity (LD50)” value in the data set with rat [4] is 40000 mg/kg [Rat].
